The subject of this assay is L1210. As to the kind of experiment: Antitumor activity against mouse L1210 cells at 400 mg/kg, ip. Format: functional, organism-based. On the set-up: dose 400 mg/kg.

SMILES strings stand for the structures. Calls of active or inactive are those of the source. The calls are words filed in the database; no cut-off is given here.

On to `NC(=S)NO`, for which the result was inactive.
